Experimental data taken from publication doi:10.1101/141937v1 (biorxiv, 2017).

Target: T1, EmrE (Escherichia coli, UniProt P23895)
T1 sequence (P23895 1-110): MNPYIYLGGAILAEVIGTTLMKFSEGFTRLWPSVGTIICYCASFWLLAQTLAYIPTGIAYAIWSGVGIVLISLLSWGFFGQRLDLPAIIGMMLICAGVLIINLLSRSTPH
Assay: biochemical

Kd: 70 ± 9 µM
Structure (SMILES): c1ccc([P+](c2ccccc2)(c2ccccc2)c2ccccc2)cc1 [TPP^+]
